Values quoted from earlier work, collected in patent publication US20040266650A1, “Washing and/or cleaning article” (priority 2001, published 2004).
≈ marks a conversion by molar mass, not a printed value. Read-outs that look alike come from different tables or passages of the source.

O=C(O)CC(O)C(=O)O (racemic) [DL-Malic acid]
Solubility (Table 2, in water at 26° C.): 1440 mg/mL (≈ 10700 mM)
Solubility (Table 3, in water at 26° C.): 1440 mg/mL (≈ 10700 mM)

[Cl-].[Cs+] [Cesium chloride]
Solubility (Table 2, in water at 20° C.): 1800 mg/mL

O=C[C@H](O)[C@@H](O)[C@@H](O)[C@H](O)CO [D(+)-Galactose]
Solubility (Table 2, in water at 25° C.): 680 mg/mL (≈ 3770 mM)

O=C(CO)[C@@H](O)[C@H](O)[C@@H](O)CO [L-(−)-Sorbose]
Solubility (Table 2, in water at 17° C.): 550 mg/mL (≈ 3050 mM)

O=C(O)/C=C\C(=O)O [Maleic acid]
Solubility (Table 2, in water at 25° C.): 788 mg/mL (≈ 6790 mM)
Solubility (Table 3, in water at 25° C.): 788 mg/mL (≈ 6790 mM)

[Cl-].[K+] [Potassium chloride]
Solubility (Table 2, in water at 20° C.): 340 mg/mL

NC(N)=O [Urea]
Solubility (Table 2, in water at 20° C.): 1080 mg/mL (≈ 18000 mM)

[Cl-].[Cl-].[Zn+2] [Zinc chloride]
Solubility (Table 2, in water at 20° C.): 3680 mg/mL

Sodium polyphosphate
Solubility (Table 2, in water at 20° C.): 1000 mg/mL
Solubility (Table 3, in water, no temperature printed (Table 2: 20° C.)): 1000 mg/mL
